Measurements: patent US6613317B1, “Volatile attractants for diabrotica species” (priority 1988, dated 2003)
Marks after values point to notes of the source that are not given here.

Key:
[1] = tested on: western corn rootworm (WCR) adults; assay: Sticky trap attraction in corn, estragole analogues (Example 3); assay type: in vivo, Diabrotica virgifera virgifera; settings: 100 mg per trap, n = 4; for Mean number of WCR per sticky trap after 24 hours: August 5 (Table 10)
Method: (§1) Test chemicals were applied by capillary micropipettes to cotton dental wicks that were attached to tops of 1.0 liter cylindrical paper cartons covered with TangleTrap™, Grand Rapids, Mich. The trapping techniques used were as previously described in Example 1. Cinnamyl alcohol, 4-methoxycinnamaldehyde, cinnamyl acetate, and 4-(4′methoxyphenyl)-3-butene-2-one which are solids at ambient temperature were prepared as standard w/v solutions in acetone prior to dosing the cotton wicks. All treatments were made at a dosage of 100 mg or 100 μL of attractant per trap. Control traps had untreated wicks. Four replicates of treated and untreated traps were positioned randomly 10 meters apart on top of 1 m high posts along the edges of 25-50 ha. fields of hybrid corn (Zea mays), infested with adult NCR, SCR, and WCR beetles. Several experiments detailed in the Tables were made in a 0.4 ha plot of sweet corn (Illini X-tra Sweet).
(§2) Attraction of Diabrotica species adults of the sticky traps was measured by the mean number of beetles caught after 1 day (ca. 24 hours) exposure. The significance of the treatments was determined by analysis of variance and the individual means were separated by Duncan's multiple range test (Statistical Package for the Social Sciences, Nie, et al., 2nd. ed. McGraw-Hill, New York (1975). The data was logarithmically transformed for statistical analysis. Means and standard deviations are presented for the untransformed data. Significance levels were set at P=0.05 for all statistical analyses.

[2] = tested on: southern corn rootworm (SCR) adults; assay: as above; assay type: in vivo, Diabrotica undecimpunctata howardi; settings: 100 mg per trap, n = 4; for Mean number of SCR per sticky trap after 24 hours: August 5 (Table 10)
Method: as §1, §2

[3] = tested on: northern corn rootworm (NCR) adults; assay: as above; assay type: in vivo, Diabrotica barberi; settings: August 5 (Table 10); 100 mg per trap; n = 4
Method: as §1, §2

[4] = tested on: western corn rootworm (WCR) adults; assay: Sticky trap attraction in sweet corn plots (Example 1); assay type: in vivo, Diabrotica virgifera virgifera; settings: for Mean number of WCR per trap (±standard deviation): n = 4
Method: (§3) The attraction of Diabrotica species to single-component and multicomponent lures was evaluated in corn fields. The field experiments on attraction of SCR and WCR adults were conducted in 0.405-ha (1-acre) plots of “Illini Xtra Sweet” corn grown on the University of Illinois South Farms at Urbana, Ill., over a two year period. Most of the tests were conducted in August to correspond with the peak silk-feeding and oviposition periods of corn rootworm adults in central Illinois. In both years, the sweet corn plot was adjacent to a 0.405-ha trap crop of C. maxima cultivar “Blue Hubbard”, to provide high densitites of SCR and WCR adults in the corn plots (Howe, et al., Environ. Entomol., 5:745-751 (1976), Lampman, et al., J. Chem. Ecol., 13:959-975 (1987).
(§4) Attraction of Diabrotica species to volatile compounds was measured by the average number of beetles cought during a 24-h period on 1.0-liter cylindrical paper cartons (15.2 cm high, 27.9 cm circumference) which were evenly coated with clear insect adhesive, TangleTrap™ (Tanglefood Co., Grand Rapids, Mich.) The candidate attractants were applied by capillary micropiettes to cotton dental wicks (13 mm long by 6 mm diameter) that were previously impregnated with mineral oil to prolong volatilization. The chemicals were purchased from Aldrich Chemical Co., (Milwaukee, Wis.) and assayed by gas chromatography as >97% pure. Indole, a solid at ambient temperatures (m.p. 52-54° C.), was dissolved in glass-distilled acetone before dosing the cotton wicks. For dosage-acticity tests, the various components were mixed in equal quantities by weight and diluted to the appropriate dosage with acetone. Treated and untreated (control) wicks were attached to the top of the paper cartons with TangleTrap™ and the inverted traps were placed on 1-m-high posts between the sweet corn rows. Four replicates of each treatment and a control were conducted in a randomized complete block desgin. The sticky traps within a block (ca. 50-m row of corn) were 5-10 m apart (depending on the number of treatments in a particular test) and the blocks were 3 m apart. The traps were baited and placed in the field between 1000 and 1300 hours and beetle counts were taken after 24 h. The significance of treatments was determined by analysis of variance and the individual means were separated by Duncan's multiple range test (Statistical Package for Social Sciences (SPSS) (Nie, et al., SPSS: statistical package for the social sciences, 2nd ed. McGraw-Hill, N.Y. (1975)). Student's t test was used for comparisons of two means (Sokal, et al., Biometry, Freeman, San Francisco (1969). Significance levels were set at P=0.05 at all statistical analyses.
(§5) The initial field test in August of the first year evaluated the response of SCR and WCR adults of a mixture of veratrole (V), indole (I), phenylacetaldehyde (P), trans-anethole (A), and eugenol (E) (=VIPAE mixture), as well as to the individual components. Each component in the VIPAE mixture was present at a dosage of 20 mg per trap and was compared with the individual components at 100 mg per trap. The response of SCR and WCR adults to a range of VIPAE doses, 1-300 mg, was conducted on the following day. Fifty SCR adults were removed from each 100-mg VIPAE trap, and returned to the laboratory for sex determination. Additional analyses in August evaluated the reduction in trap catches produced by the sequential removal of the individual components from the VIPAE lure. After the primary components of the initial lure were determined, a modified multicomponent lure consisting of veratrole, indole, and phenylacetaldehyde (=VIP mixture) was compared with its individual components to determine whether the attraction of SCR adults was the result of interactive or additive factors. The attraction and synergistic response of SCR adults of the VIP mixture was verified by tests conducted in August of the following year. […]

SCR = assay: Limit of response rating of squash blossom volatiles on sticky traps (Example 5); assay type: in vivo, Diabrotica undecimpunctata howardi; settings: 24 hour; four replicate traps; 0.01 mg to 200 mg
Method: (§6) Over 40 individual volatile chemicals have been isolated from Cucurbita maxima blossoms and circa 25 of these have been unequivocally identified (Andersen, J. F., J. Agric. Food Chem., 35:60-62 (1987): Andersen, J. F. and Metcalf, R. L., J. Chem. Ecol., 12:687-699 (1986)). The major odor components were evaluated as potential attractants for adult Diabrotica species using cylindrical sticky traps baited with dental cotton wicks (Metcalf, R. L., and Lampman, R. L., Paper submitted to J. Econ. Entomol., (1988)) containing from 0.01 mg to 200 mg of volatile compound.

WCR = assay: as above; assay type: in vivo, Diabrotica virgifera virgifera; settings: 24 hour; four replicate traps; 0.01 mg to 200 mg
Method: as §6

NCR = assay: as above; assay type: in vivo, Diabrotica barberi; settings: 24 hour; four replicate traps; 0.01 mg to 200 mg
Method: as §6

[5] = tested on: southern corn rootworm (SCR) adults; assay: Sticky trap attraction in sweet corn plots (Example 1); assay type: in vivo, Diabrotica undecimpunctata howardi; settings: for Mean number of SCR per trap (±standard deviation): n = 4
Method: as §3, §4, §5

D. cristata = assay: Sticky trap attraction in prairie habitat, Trelease Woods (Example 2); assay type: in vivo, Diabrotica cristata; settings: August 14, 1987; 100 mg per trap; n = 4
Method: (§7) The candidate lures in all experiments were purchased commercially and exceeded 98% purity. The test chemicals were applied by capillary micropipettes to cotton dental wicks which were attached to the tops of 1.0 liter cylindrical paper cartons covered with TangleTrap™ (Tanglefoot Co., Grand Rapids, Mich.). The sticky trap techniques used were as described in Example 1. Cinnamyl alcohol and para-methoxycinnamaldehyde, which are solids, were dissolved in glass-distilled acetone prior to dosing the cotton wicks. […]. Control traps had untreated cotton wicks. Four replicates of treated and untreated traps were randomly positioned 10 meters apart on top of 1 m high posts along the border of a eight foot wide strip cut through the middle of a 4.05 ha relict prairie at Trelease Woods (ca. two miles northeast of Urbana, Ill.). The field consisted primarily of Andropogon gerardii Vitman (big bluestem) and a variety of composites. The tests were conducted in mid-August of two years and were timed to coincide with the presence of D. cristata and D. barberi adults in the flower heads of Canada thistle (Carduus arvensis Robson). In the second year, several new attractants of D. v. virgifera and D. barberi were tested in Trelease Woods and along the edge of a 0.8 ha field of hybrid corn located at the Pomology South Farms, Urbana, Ill. Attraction of Diabrotica species to the various lures was measured by the mean number of beetles caught after 24-h. On one date in late August of the first year, D. cristata and D. barberi were removed from the traps and sexed in the laboratory. The significance of treatments in all tests was determined by an analysis of variance and the individual means were separated by Duncan's multiple range test (Statistical Package for Social Science, Nie, et al., SPSS: statistical package for the social sciences, 2nd ed. McGraw-Hill, New York (1975). Data were logarithmically transformed for statistical analysis and the means and standard deviations are presented for the untransformed data.

D. v. virgifera = assay: as above; assay type: in vivo, Diabrotica virgifera virgifera; settings: August 14, 1987; 100 mg per trap; n = 4
Method: as §7

D. barberi = assay: as above; assay type: in vivo, Diabrotica barberi; settings: August 14, 1987; 100 mg per trap; n = 4
Method: as §7

D. u. howardi = assay: as above; assay type: in vivo, Diabrotica undecimpunctata howardi; settings: August 14, 1987; 100 mg per trap; n = 4
Method: as §7

[6] = August 4, second year, each compound 20 mg per trap
[7] = August 7, second year, each compound 20 mg per trap
[8] = August first year, South Farms, 24 h, single compounds 100 mg per trap, mixture 20 mg of each component
[9] = August first year, single compounds 100 mg per trap, mixture 20 mg each component

Structure (SMILES): COC(=O)C=Cc1ccccc1 [XV, cinnamic acid methyl ester]
- Mean number of WCR per sticky trap after 24 hours [1]: 9.5 ± 4.5^a per sticky trap
- Mean number of WCR adults per sticky trap (±standard deviation) after 24 hours ([1]; September 11): 1.7 ± 1.7^a per sticky trap
- Mean number of SCR per sticky trap after 24 hours [2]: 2.0 ± 0.8^a per sticky trap
- Mean number of SCR adults per sticky trap (±standard deviation) after 24 hours ([2]; September 11): 3.2 ± 1.7^ab per sticky trap
- Mean number of NCR per sticky trap after 24 hours [3]: 0.5 ± 0.6^a per sticky trap

Structure (SMILES): N#CC=Cc1ccccc1 [X, cinnamonitrile]
- Mean number of WCR adults per sticky trap (±standard deviation) after 24 hours ([1]; August 4 second year): 32.7 ± 11.4^bc per sticky trap
- Mean number of WCR per sticky trap after 24 hours [1]: 37.8 ± 7.8^cd per sticky trap
- Mean number of WCR adults per sticky trap (±standard deviation) after 24 hours ([1]; August 5 first year): 1.5 ± 6.6^ab per sticky trap
- Mean number of SCR adults per sticky trap (±standard deviation) after 24 hours ([2]; August 4 second year): 59.5 ± 49.0^c per sticky trap
- Mean number of SCR per sticky trap after 24 hours [2]: 47.5 ± 15.4^cd per sticky trap
- Mean number of SCR adults per sticky trap (±standard deviation) after 24 hours ([2]; August 5 first year): 156.0 ± 37.2^c per sticky trap
- Mean number of NCR per sticky trap after 24 hours [3]: 0.3 ± 0.5^a per sticky trap

Structure (SMILES): CC(=O)OCC=Cc1ccccc1 [XIX, cinnamyl acetate]
- Mean number of WCR per sticky trap after 24 hours [1]: 24.0 ± 1.07^b per sticky trap
- Mean number of SCR per sticky trap after 24 hours [2]: 6.0 ± 1.5^a per sticky trap
- Mean number of NCR per sticky trap after 24 hours [3]: 5.7 ± 2.9^b per sticky trap

Structure (SMILES): O=CCc1ccccc1 [Phenylacetaldehyde]
- relative percent activity (WCR) as compared with the highest mean value for the test date [4, 6]: 35%
- Mean number of WCR per trap (±standard deviation) [4, 6]: 17.8 ± 7.9 per trap
- relative percent activity (WCR) as compared with the highest mean value for the test date [4, 7]: 42%
- Mean number of WCR per trap (±standard deviation) [4, 7]: 13.3 ± 8.1 per trap
- Mean number of WCR per trap (±standard deviation) [4, 8]: 1.8 ± 1.3 per trap
- relative percent activity of the mean WCR trap catch as compared with the highest mean value in the column [4, 9]: 26%
- Attractant Rating SCR (by limit of response) (SCR): +2 (10-30)
- Attractant Rating WCR (by limit of response) (WCR): 0 (200)
- Attractant Rating NCR (by limit of response) (NCR): 0 (200)
- relative percent activity (SCR) as compared with the highest mean value for the test date [5, 6]: 8%
- Mean number of SCR per trap (±standard deviation) [5, 6]: 3.0 ± 1.2 per trap
- relative percent activity (SCR) as compared with the highest mean value for the test date [5, 7]: 12%
- Mean number of SCR per trap (±standard deviation) [5, 7]: 5.3 ± 3.2 per trap
- Mean number of SCR per trap (±standard deviation) [5, 8]: 2.5 ± 1.9 per trap
- relative percent activity of the mean SCR trap catch as compared with the highest mean value in the column [5, 9]: 12%

Structure (SMILES): O=C(O)C=Cc1ccccc1 [XX, cinnamic acid]
- Mean number of WCR per sticky trap after 24 hours [1]: 12.7 ± 4.9^a per sticky trap
- Mean number of SCR per sticky trap after 24 hours [2]: 1.7 ± 0.5^a per sticky trap
- Mean number of NCR per sticky trap after 24 hours [3]: 1.7 ± 1.0^a per sticky trap

Structure (SMILES): O=C(O)CCc1ccccc1 [XXII, dihydrocinnamic acid]
- Mean number of WCR per sticky trap after 24 hours [1]: 12.0 ± 3.6^a per sticky trap
- Mean number of SCR per sticky trap after 24 hours [2]: 33.7 ± 8.7^bc per sticky trap
- Mean number of NCR per sticky trap after 24 hours [3]: 4.0 ± 1.4^b per sticky trap

Structure (SMILES): N#CCCc1ccccc1 [XXIII, phenyl propionitrile]
- Mean number of WCR per sticky trap after 24 hours [1]: 12.0 ± 4.2^a per sticky trap
- Mean number of SCR per sticky trap after 24 hours [2]: 23.7 ± 9.7^b per sticky trap
- Mean number of NCR per sticky trap after 24 hours [3]: 0.3 ± 0.5^a per sticky trap

Structure (SMILES): CC(=O)/C=C/C1C(C)=CCCC1(C)C (stereo not drawn) [α-ionone]
- Mean number of D. cristata per day (±standard deviation) (D. cristata): 2.8 ± 2.1^a per day
- Attractant Rating SCR (by limit of response) (SCR): 0 (200)
- Attractant Rating WCR (by limit of response) (WCR): 0 (200)
- Attractant Rating NCR (by limit of response) (NCR): 0 (200)
- Mean number of D. v. virgifera per day (±standard deviation) (D. v. virgifera): 0.0^a per day
- Mean number of D. barberi per day (±standard deviation) (D. barberi): 0.3 ± 0.5^a per day
- Mean number of D. u. howardi per day (±standard deviation) (D. u. howardi): 0.0^a per day
